Measured values taken from PMC6271179 (Molecules, 2014).

Columns and labels:
[1] = test system: explanted rat jejunum segments; experiment: Permeation across explanted rat jejunum segments in Ussing-type chambers (ex vivo)
Method: We assayed transport of the derivatives across explanted rat jejunum segments using Ussing-type chambers.
Intestine was excised from 18 h fasted rats and transferred into a saline solution (154 mM NaCl in water) at 37 °C. The jejunum was cut into 1 cm long strips, opened longitudinally, rinsed free of luminal content and mounted in Ussing-type chambers. Apical and basolateral compartments were filled with 1 mL each of oxygenated HEPES buffer (248 mM NaCl, 55.3 mM glucose, 50 mM NaHCO3, 9.9 mM KCl, 1.9 mM MgSO4, 40 mM HEPES, pH 6.8), and incubated in a water bath at 37 °C until all chambers were assembled (approximately 20 min). The buffer was then removed and substituted with 1 mL of a 20 µM solution (in the same buffer) of the compound to be tested on the apical side (dilution from a 20 mM stock solution), and with 1 mL of fresh HEPES buffer on the basolateral one. […] During the experiment, oxygen was continuously bubbled in each basolateral compartment. […]
Samples (2 µL) were analyzed by HPLC/UV (1290 Infinity LC System, Agilent Technologies) using a reverse phase column (Zorbax RRHD Eclipse Plus C18, 1.8 µm, 50 x 2.1 mm i.d.; Agilent Technologies) and a UV diode array detector (190-500 nm). […]

[2] = In vivo pharmacokinetics after oral (intragastric) administration to rats; conditions: rat
Method: Derivative 2 was administered to overnight-fasted male Wistar rats from the facility of the Department of Biomedical Sciences as a single intragastric dose (88 µmol/kg, dissolved in 250 µL water). Blood samples were obtained by the tail bleeding technique: before drug administration, rats were anesthetised with isoflurane and the tip of the tail was cut off; blood samples (80–100 µL each) were then taken from the tail tip at different time points after drug administration. Blood was collected in heparinised tubes, kept in ice and treated as described in [90] within 10 min.
For quantification purposes we assumed the same absorption coefficient.

In the case of `CN(CCCCOC1C(O)C(O)OC(CO)C1O)C(=O)Oc1ccc(C=Cc2cc(OC(=O)N(C)CCCCOC3C(O)C(O)OC(CO)C3O)cc(OC(=O)N(C)CCCCOC3C(O)C(O)OC(CO)C3O)c2)cc1` [derivative 2, 3,4',5-Tri-[α/β-D-glucopyranose-3-(4-N-methyl-N-butoxy)]-resveratrol carbamate], the “species detected in the basolateral chamber” value ([1]; 20 µM apical, 2.5 h) is reported as “only the intact derivative was detected”, the “extent of translocation with SGLT-1/GLUT-2 inhibitors (phlorizin, phloretin, cytochalasin B), low glucose, non-fasted or glucose-fed rats” value ([1]; comparison among conditions) is reported as “not to differ significantly” and the Tmax ([2]; male, Wistar, whole blood, po, 88 umol/kg, single intragastric dose 88 µmol/kg, blood, read-out: time of maximum blood levels (converted)) is reported as roughly 1 h. For the same molecule, the “concentration of the derivative in the bloodstream” value ([2]; gavage 88 µmol/kg, during the 4 hours following administration) was “low concentrations” and the “resveratrol and its common metabolites in blood after oral administration (hydrolysis of carbamate groups)” value ([2]; oral, also basolateral chamber ex vivo) was “Neither resveratrol nor its common metabolites were present in detectable amounts”.
